A word on the EC50: it is the midpoint of the concentration-response curve. The low end stands for a more potent agent, the high end for a less potent agent.

Assay [1] relates to MDCK. The experiment in a line: cells. As to conditions: Canis lupus familiaris.
The next assay deals with Epithelial cell. Put plainly: Antiviral activity against influenza B (Hong kong/5/72) in human epithelial cells. Format: functional, cell-based.
The test system of assay [2] is MDCK. The experiment in a line: Minimum cytotoxic concentration required to cause a microscopically detectable alteration of MDCK, Madin-Darby canine kidney cell morphology. Format: functional, Canis lupus familiaris.

Regarding `C1CNC2(C1)C1CC3CC(C1)CC2C3` (stereo not given), the EC50 in the assay on MDCK [1] is 1.8 µM; in the assay with Epithelial cell, greater than 1100 µM. Moreover, the MCC50 in the assay with MDCK [2] is greater than 610.5 µM.

As to `CC1CCC2(C3CC4CC(C3)CC2C4)N1C` (stereo not given), the EC50 came out at 2.7 µM with MDCK [1] and 149 µM in the assay with Epithelial cell. Further, in the assay with MDCK [2], the MCC50 worked out at 55.3 µM.

Turning to `CC1CCN(C)C12C1CC3CC(C1)CC2C3` (stereo not given), the results for the EC50 in the assay with MDCK [1] and in the assay with Epithelial cell were 12.5 µM and greater than 746 µM, respectively. Also, in the assay with MDCK [2], the MCC50 was greater than 60 µM.

For the compound `CC1CNC2(C1)C1CC3CC(C1)CC2C3` (stereo not given), the EC50 in the assay on MDCK [1] amounted to 3.3 µM; with Epithelial cell, 1040 µM. Further, the MCC50 in the assay on MDCK [2] was 313.6 µM.

Regarding `CC1CCC2(N1)C1CC3CC(C1)CC2C3` (stereo not given), the figures for the EC50 in the assay on MDCK [1] and with Epithelial cell were 2.5 µM and greater than 1040 µM, respectively. Also, the MCC50 in the assay with MDCK [2] was greater than 414 µM.

Turning to `CN1CCCC12C1CC3CC(C1)CC2C3` (stereo not given), the EC50 in the assay with MDCK [1] is 2.9 µM; in the assay on Epithelial cell, greater than 1040 µM. In the assay with MDCK [2], this compound yielded an MCC50 of 357 µM.

On to `CC1CN(C)C2(C1)C1CC3CC(C1)CC2C3` (stereo not given), for which the values for the EC50 in the assay with MDCK [1] and with Epithelial cell were 3.3 µM and greater than 746 µM, respectively. The compound further registered an MCC50 in the assay with MDCK [2] greater than 226 µM.

On to `CC1CCNC12C1CC3CC(C1)CC2C3` (stereo not given), for which the EC50 in the assay on MDCK [1] was 3.7 µM; with Epithelial cell, greater than 1040 µM. Besides, the MCC50 in the assay on MDCK [2] is greater than 280 µM.

For `NC12CC3CC(CC(C3)C1)C2` [AMANTADINE], the EC50 is 1.1 µM in the assay with MDCK [1] and greater than 1330 µM in the assay with Epithelial cell. In addition, the MCC50 in the assay with MDCK [2] is greater than 1211.8 µM.

Turning to `NC(=O)c1ncn([C@@H]2O[C@H](CO)[C@@H](O)[C@H]2O)n1` [RIBAVIRIN], the EC50 in the assay with MDCK [1] is 3.7 µM; with Epithelial cell, greater than 1020 µM. For the same compound, the MCC50 with MDCK [2] is greater than 276.9 µM.
